Assay [1] has as its system Trichophyton rubrum KD-1130. As to the kind of experiment: Antifungal activity evaluation test: minimum inhibitory concentration (MIC), broth dilution by reference to CLSI M38-A2. The settings on record: KD1130, read-out: MIC (T. rubrum). It is filed as cell-based. In outline:
(§1)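 Broth microdilution after CLSI M38-A2: 2-fold DMSO dilution series in MOPS-buffered RPMI 1640 pH 7.0, inoculum 2×10^3 cells/mL final. Incubated 35° C for 4 days; MIC (μg/mL) is lowest concentration giving visually ≥80% growth inhibition versus growth control.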
In general terms: Broth dilution looks for growth in wells or tubes with falling amounts of substance.

Assay [2] relates to Trichophyton mentagrophytes SM-110. Described as above. It is filed as cell-based. To be noted: SM110, read-out: MIC (T. menta.). In outline: as §1

Each structure is given as a SMILES string. ≈ marks a conversion by molar mass, not a printed value. Bounds are passed on as bounds.

One may read the MIC as the lowest concentration found to suppress growth. Consider `COc1ncccc1-c1cccnc1Oc1cnc2c(c1)CCCC2` [I-135, 3-{[2′-methoxy-(3,3′-bipyridin)-2-yl]oxy}-5,6,7,8-tetrahydroquinoline], for which the MIC in assay [1] and in assay [2] was no more than 0.1 µg/mL in each case.
Turning to `CCOCCc1ccc(Oc2ncccc2-c2cnccc2OC)cc1` [I-274, 2-[4-(2-ethoxyethyl)phenoxy]-4′-methoxy-3,3′-bipyridine], the minimum inhibitory concentration (MIC) in assay [1] and in assay [2] was 0.2 to 0.78 µg/mL (≈ 0.571 to 2.23 µM) each time.
Consider `Cc1noc(C)c1-c1cccnc1Oc1ccc(C(C)(F)F)nc1` [I-102], for which the MIC in assay [1] and in assay [2] was 0.2 to 0.78 µg/mL (≈ 0.604 to 2.35 µM) in each case.
`COc1ccccc1-c1cccnc1Oc1cnc2c(c1)CCCC2N(C)C` (stereo not shown) [I-143, 3-{[3-(2-methoxyphenyl)pyridin-2-yl]oxy}-N,N-dimethyl-5,6,7,8-tetrahydroquinolin-8-amine]: the MIC in assay [1] and in assay [2] was 0.2 to 0.78 µg/mL (≈ 0.533 to 2.08 µM) in each case.
As to `CC(F)(F)c1ccc(Oc2ncccc2-c2cccnc2-n2ccnc2)cn1` [I-106, 2-{[6-(1,1-difluoroethyl)pyridin-3-yl]oxy}-2′-(1H-imidazol-1-yl)-3,3′-bipyridine], the minimal inhibitory concentration (MIC) in assay [1] and in assay [2] was 1.56 to 6.25 µg/mL (≈ 4.11 to 16.5 µM) in each case.
Take `COC(=O)CCc1ccc(Oc2ncccc2-c2cccnc2OC)cc1` [I-409]: the MIC in assay [1] and in assay [2] was no more than 0.1 µg/mL in each case.
As for `COCC(F)(F)c1ccc(Oc2ncncc2-c2cccnc2OC)cn1` [I-361, 4-{[6-(1,1-difluoro-2-methoxyethyl)pyridin-3-yl]oxy}-5-(2-methoxypyridin-3-yl)pyrimidine], the MIC in assay [1] and in assay [2] was 0.2 to 0.78 µg/mL (≈ 0.534 to 2.08 µM) throughout.
As to `COc1cc(F)c(F)cc1-c1cccnc1Oc1ccc(C(F)F)nc1` [I-76, 3-(4,5-difluoro-2-methoxyphenyl)-2-{[6-(difluoromethyl)pyridin-3-yl]oxy}pyridine], the minimal inhibitory concentration (MIC) in assay [1] and in assay [2] was no more than 0.1 µg/mL throughout.
For `COc1ccccc1-c1cccnc1Oc1cnc2c(c1)CCCC2=O` [I-141, 3-{[3-(2-methoxyphenyl)pyridin-2-yl]oxy}-6,7-dihydroquinolin-8(5H)-one], the MIC in assay [1] and in assay [2] was 1.56 to 6.25 µg/mL (≈ 4.5 to 18 µM) in each case.
Turning to `CC(F)(F)c1ccc(Oc2ncccc2-c2nccc3ccccc23)cn1` [I-112, 1-(2-{[6-(1,1-difluoroethyl)pyridin-3-yl]oxy}-3-yl)isoquinoline], the MIC in assay [1] and in assay [2] was 0.2 to 0.78 µg/mL (≈ 0.55 to 2.15 µM) throughout.
As to `CC(F)(F)c1ccc(Oc2ncccc2-c2cccc3ncoc23)cn1` [I-114, 7-(2-{[6-(1,1-difluoroethyl)pyridin-3-yl]oxy}pyridin-3-yl)benzo[d]oxazole], the MIC in assay [1] and in assay [2] was 0.2 to 0.78 µg/mL (≈ 0.566 to 2.21 µM) in each case.
As for `COc1c(F)cncc1-c1cccnc1Oc1ccc(C(C)(F)F)nc1` [I-98, 2-{[6-(1,1-difluoroethyl)pyridin-3-yl]oxy}-5′-fluoro-4′-methoxy-3,3′-bipyridine], the MIC in assay [1] and in assay [2] was 0.2 to 0.78 µg/mL (≈ 0.554 to 2.16 µM) each time.
For the compound `Cn1nccc1-c1cccnc1Oc1ccc(C(F)(F)F)cc1` [I-221, 3-(1-methyl-1H-pyrazol-5-yl)-2-[4-(trifluoromethyl)phenoxy]pyridine], the minimal inhibitory concentration (MIC) in assay [1] and in assay [2] was 0.2 to 0.78 µg/mL (≈ 0.626 to 2.44 µM) each time.
On to `COc1ccncc1-c1cccnc1Oc1ccc(C2CC2)nc1` [I-133, 2-[(6-cyclopropylpyridin-3-yl)oxy]-4′-methoxy-3,3′-bipyridine], for which the minimum inhibitory concentration (MIC) in assay [1] and in assay [2] was 1.56 to 6.25 µg/mL (≈ 4.88 to 19.6 µM) each time.
As to `COc1ccncc1-c1cccnc1Oc1ccc(SC)cc1` [I-241, 4′-methoxy-2-[4-(methylthio)phenoxy]-3,3′-bipyridine], the MIC in assay [1] and in assay [2] was no more than 0.1 µg/mL in each case.
As for `COCC(F)(F)c1ccc(Oc2ncccc2-c2ccccc2OC)cn1` [I-145, 2-{[6-(1,1-difluoro-2-methoxyethyl)pyridin-3-yl]oxy}-3-(2-methoxyphenyl)pyridine], the minimal inhibitory concentration (MIC) in assay [1] and in assay [2] was no more than 0.1 µg/mL throughout.
`C#Cc1ccc(Oc2ncccc2-c2cnccc2OC)cc1` [I-260, 2-(4-ethynylphenoxy)-4′-methoxy-3,3′-bipyridine]: the results for the minimal inhibitory concentration (MIC) in assay [1] and in assay [2] were no more than 0.1 µg/mL and 0.2 to 0.78 µg/mL (≈ 0.662 to 2.58 µM), respectively.
For `COc1cc(-c2cccnc2Oc2ccc(C(F)F)nc2)c(F)cc1F` [I-77, 3-(2,4-difluoro-5-methoxyphenyl)-2-{[6-(difluoromethyl)pyridin-3-yl]oxy}pyridine] the same measures were no more than 0.1 µg/mL and no more than 0.1 µg/mL.
For `CCc1ccc(Oc2ncccc2-c2cccc3c2OCC3)cn1` [I-125] the same measures were 0.2 to 0.78 µg/mL (≈ 0.628 to 2.45 µM) and no more than 0.1 µg/mL.
For `COc1ccccc1-c1cccnc1Oc1ccc(CNc2ccccc2)nc1` [I-371, N-[(5-{[3-(2-methoxyphenyl)pyridin-2-yl]oxy}pyridin-2-yl)methyl]aniline] the same measures were no more than 0.1 µg/mL and no more than 0.1 µg/mL.
For `COCc1ccccc1-c1cccnc1Oc1ccc(C(F)(F)F)nc1` [I-60], the minimal inhibitory concentration (MIC) in assay [1] and in assay [2] was 0.2 to 0.78 µg/mL (≈ 0.555 to 2.16 µM) each time.
As for `CCc1ccc(Oc2ncccc2-c2cncnc2OC)cc1` [I-282, 5-[2-(4-ethylphenoxy)pyridin-3-yl]-4-methoxypyrimidine], the minimal inhibitory concentration (MIC) in assay [1] and in assay [2] was no more than 0.1 µg/mL each time.
`COc1ncccc1-c1cncnc1Oc1ccc(C(F)(F)F)cc1` [I-330, 5-(2-methoxypyridin-3-yl)-4-[4-(trifluoromethyl)phenoxy]pyrimidine]: the MIC in assay [1] and in assay [2] was no more than 0.1 µg/mL throughout.
In the case of `COc1ncccc1-c1cccnc1Oc1cnc(I)nc1` [I-353], the minimal inhibitory concentration (MIC) in assay [1] fell in the range of 0.2 to 0.78 µg/mL (≈ 0.492 to 1.92 µM); in assay [2], 1.56 to 6.25 µg/mL (≈ 3.84 to 15.4 µM).
On the same counts, the results for `COc1ccncc1-c1cccnc1Oc1ccc(C)cc1` [I-252, 4′-methoxy-2-(p-tolyloxy)-3,3′-bipyridine] are 0.2 to 0.78 µg/mL (≈ 0.684 to 2.67 µM) and 0.2 to 0.78 µg/mL (≈ 0.684 to 2.67 µM).
On the same counts, the results for `COc1nccnc1-c1cccnc1Oc1ccc(C(F)(F)F)cc1` [I-218, 2-methoxy-3-{2-[4-(trifluoromethyl)phenoxy]pyridin-3-yl}pyrazine] are no more than 0.1 µg/mL and no more than 0.1 µg/mL.
Regarding `Cc1c(F)cncc1-c1cccnc1Oc1ccc(C(F)(F)F)cc1` [I-208], the minimal inhibitory concentration (MIC) in assay [1] and in assay [2] was no more than 0.1 µg/mL throughout.
Regarding `COc1cc(F)ccc1-c1cccnc1Oc1ccc(C(F)F)nc1` [I-73, 2-{[6-(difluoromethyl)pyridin-3-yl]oxy}-3-(4-fluoro-2-methoxyphenyl)pyridine], the minimum inhibitory concentration (MIC) in assay [1] and in assay [2] was no more than 0.1 µg/mL each time.
Take `COc1ccncc1-c1cccnc1Oc1ccc(C2CC2)cc1` [I-261, 2-(4-cyclopropylphenoxy)-4′-methoxy-3,3′-bipyridine]: the MIC in assay [1] and in assay [2] was no more than 0.1 µg/mL each time.
Turning to `COc1ccncc1-c1cccnc1Oc1ccc(OC(F)(F)F)cc1` [I-237, 4′-methoxy-2-[4-(trifluoromethoxy)phenoxy]-3,3′-bipyridine], the MIC in assay [1] and in assay [2] was no more than 0.1 µg/mL throughout.
Take `Cc1cnn2c(-c3cccnc3Oc3ccc(C(F)(F)F)nc3)cccc12` [I-53, 3-methyl-7-(2-{[6-(trifluoromethyl)pyridin-3-yl]oxy}pyridin-3-yl)-pyrazolo[1,5-a]pyridine]: the values for the minimal inhibitory concentration (MIC) in assay [1] and in assay [2] were no more than 0.1 µg/mL and 0.2 to 0.78 µg/mL (≈ 0.54 to 2.11 µM), respectively.
On the same counts, the results for `COc1c(Cl)cncc1-c1cccnc1Oc1ccc(C(C)(F)F)cc1` [I-300] are no more than 0.1 µg/mL and no more than 0.1 µg/mL.

The record behind these values is patent publication US10647675B2 (priority 2015, dated 2020).
